Data set [1] in a line: Tmax in C57BL/6JO1aHsd mouse plasma at 10 mg/kg, po. The format is ADME, organism-based. Also noted: dose 10 mg/kg, route oral.
Data set [2] deals with Brain. Briefly: Cmax in C57BL/6JO1aHsd mouse brain at 10 mg/kg, po. Also noted: dose 10 mg/kg, route oral. To be noted: in vivo. The format is ADME, organism-based.
A short description of data set [3]: Tmax in C57BL/6JO1aHsd mouse muscle at 10 mg/kg, po. The format is ADME, organism-based, Muscle tissue. Also noted: dose 10 mg/kg, route oral.
A short description of data set [4]: Oral bioavailability in C57BL/6JO1aHsd mouse at 10 mg/kg. The format is ADME, organism-based. The settings on record: in vivo.
The test system of data set [5] is Plasma. Description: Cmax in C57BL/6JO1aHsd mouse plasma at 10 mg/kg, po. The settings on record: in vivo. The format is ADME, organism-based. On the set-up: dose 10 mg/kg, route oral.
A short description of data set [6]: Tmax in C57BL/6JO1aHsd mouse brain at 10 mg/kg, po. The format is ADME, organism-based. On the set-up: dose 10 mg/kg, route oral.
The test system of data set [7] is Muscle tissue. Description: Cmax in C57BL/6JO1aHsd mouse muscle at 10 mg/kg, po. The format is ADME, organism-based. Also noted: dose 10 mg/kg, route oral. The settings on record: in vivo.
Data set [8] is described as follows: Volume of distribution at steady state in C57BL/6JO1aHsd mouse at 5 mg/kg, iv. The format is ADME, organism-based. Also noted: dose 5 mg/kg, route intravenous. To be noted: in vivo, read-out: Vdss.
Data set [9] has as its system Plasma. Briefly: Dose normalized AUC in C57BL/6JO1aHsd mouse plasma at 10 mg/kg, po. The format is ADME, organism-based. The settings on record: in vivo. Also noted: dose 10 mg/kg, route oral.
Data set [10] concerns Brain. Description: Dose normalized AUC in C57BL/6JO1aHsd mouse brain at 10 mg/kg, po. The format is ADME, organism-based. On the set-up: dose 10 mg/kg, route oral. To be noted: in vivo.
In data set [11] the test system is Muscle tissue. Briefly: Dose normalized AUC in C57BL/6JO1aHsd mouse muscle at 10 mg/kg, po. The settings on record: in vivo. On the set-up: dose 10 mg/kg, route oral. The format is ADME, organism-based.
A short description of data set [12]: Ratio of drug uptake from muscle to plasma in C57BL/6JO1aHsd mouse at 10 mg/kg, po. The format is ADME, organism-based. On the set-up: dose 10 mg/kg, route oral.
The nature of data set [13]: Ratio of drug uptake from brain to plasma in C57BL/6JO1aHsd mouse at 10 mg/kg, po. The format is ADME, organism-based. The settings on record: read-out: BPR. On the set-up: dose 10 mg/kg, route oral.

Structures are written as SMILES.

For the compound `O=C(NO)[C@@H]1[C@H](c2ccccc2)[C@H]1c1ccc2c(c1)CN(CC(F)(F)F)C2=O`, the time to peak (Tmax) in data set [1] worked out at 30 min; in data set [3] it was 60 min; in [6] it was 30 min. Besides, the Cmax normalised in the data set with Brain [2] is 5.7 nM·kg/mg; with Plasma [5], 280 nM·kg/mg; in the data set on Muscle tissue [7], 160 nM·kg/mg. In addition, in [4], the bioavailability amounted to 62%. In addition, the Vd in data set [8] came out at 4.6 L/kg. The AUC/dose with Plasma [9] is 1100 nM·kg·h/mg; in the data set with Brain [10], 17 nM·kg·h/mg; in the data set on Muscle tissue [11], 1000 nM·kg·h/mg.

As for `O=C(NO)[C@@H]1[C@H](c2ccccc2)[C@H]1c1ccc(-c2cnc(C3CC3)o2)cc1`, the Kp in data set [12] came to 0.4; in data set [13], 0.3. Also, the Tmax in [1] amounted to 30 min; in data set [3], 60 min; in data set [6], 60 min. Also, the Cmax normalised with Brain [2] turned out to be 200 nM·kg/mg; in the data set on Plasma [5] it was 810 nM·kg/mg; in the data set on Muscle tissue [7], 420 nM·kg/mg. This compound yielded a bioavailability in [4] of 73%. Also, the Vd in [8] stood at 1.6 L/kg. Also, the AUC/dose came out at 1500 nM·kg·h/mg in the data set on Plasma [9], 390 nM·kg·h/mg in the data set with Brain [10] and 1000 nM·kg·h/mg in the data set on Muscle tissue [11].

For the compound `O=C(NO)[C@@H]1[C@H](c2ccccc2)[C@H]1c1ccc(-c2cnco2)cc1`, the time to peak (Tmax) in [1], in data set [3] and in data set [6] was 30 min in each case. The Cmax normalised in the data set with Brain [2] was 670 nM·kg/mg; in the data set with Plasma [5] it was 1200 nM·kg/mg; in the data set on Muscle tissue [7], 730 nM·kg/mg. In data set [4], the bioavailability was determined as 84%. The Vd in data set [8] turned out to be 0.74 L/kg. The AUC/dose with Plasma [9] was 1300 nM·kg·h/mg; in the data set with Brain [10], 700 nM·kg·h/mg; in the data set with Muscle tissue [11], 810 nM·kg·h/mg.

The Tmax is the time from dosing to the highest level. As usually defined, the bioavailability is dose-corrected exposure relative to a reference, in per cent. The low end stands for poor availability, the high end for good availability.

The record behind these values is ChEMBL document CHEMBL3108758, “Design, synthesis, and biological evaluation of potent and selective class IIa histone deacetylase (HDAC) inhibitors as a potential therapy for Huntington's disease” (J Med Chem, 2013).
